Test results as given in US20250145715A1, “B7-H3 TARGETING FUSION PROTEINS AND METHODS OF USE THEREOF” (GT Biopharma, Inc., priority 2021, published 2025).

Assays:
Format in all cases: cell-based, human
[1] = tested on: H929 myeloma cells with MDSC; assay: Myeloma cytotoxicity assay with added MDSC, live cell imaging; details: B7-H3 TriKE and NK cells, 48 hours live cell imaging
Experimental: FIGS. 10A-10D illustrate the effect B7-H3-TriKE on MDSC developed from CD33+ myeloid cells from healthy donors, when incubated with myeloma cells at 1:100 ratio. FIG. 10A is a graph showing MDSC (CD14+CD11b+) expression of B7-H3. FIG. 10B is a graph showing cell survival as measured by flow cytometry. FIG. 10C is a plot of live, CD14+ cells FIG. 10D is a graph illustrating H929 growth as measured over 48 hours by live cell imaging.
MDSC were developed from CD33+ myeloid cells from healthy donors using IL-6 and GM-CSF or by incubating them with myeloma cells at 1:100 ratio for seven days.

[2] = tested on: MA-148 ovarian cancer cells; assay: NK cell CD107a / IFNγ flow cytometry against MA-148; details: vs controls
Experimental: (§1) FIG. 29A is a graph illustrating pooled proportion of NK cells from healthy donors expressing CD107a+ (degranulation) against OVCAR8 and MA148 targets. FIG. 29B is a graph illustrating pooled proportion of NK cells from healthy donors expressing IFNγ cytokine production against OVCAR8 and MA148 targets.
(§2) Healthy donor or ovarian cancer PBMC cells were incubated with ovarian tumor targets at 2:1 E:T ratio for 4 hrs with 30 nM TriKE or control condition. FIG. 30A is a graph illustrating pooled proportion of NK cells from healthy donors expressing CD107a+ (degranulation) against OVCAR8 targets (N=8). […] FIG. 30I is a graph illustrating that tumor killing was evaluated using IncuCyte imaging assay. […] The percentage of Live (Nuclight Red+Caspase 3/7−) tumor cells was quantified over a 48-h period and normalized to tumor alone. Readings were obtained every 15 min (representative of four separate experiments). * p<0.05, ** p<0.01, *** p<0.001, and **** p<0.0001.
(§3) ADCC was measured in a flow cytometry assay by evaluating degranulation via CD107a (lysosomal-associated membrane protein LAMP-1) and intracellular IFNγ production. […] Samples were washed and evaluated in an LSRII flow cytometer (BD Biosciences, San Jose, CA, USA).
(§4) The ability of cam1615B7-H3 TriKE to mediate NK cell activity against ovarian cancer cells was evaluated. […]

[3] = tested on: OVCAR8 ovarian cancer cells; assay: NK cell CD107a / IFNγ flow cytometry against OVCAR8; details: 30 nM, E:T 2:1, 4 hrs; vs no treatment and rhIL-15 alone
Experimental: as §1
as §2, with “(N=8). FIG. 30B is a graph illustrating pooled proportion of NK cells from healthy donors expressing IFNγ cytokine production against OVCAR8 targets (N=8). FIG. 30C is a graph illustrating pooled proportion of NK cells from healthy donors expressing CD107a+ (degranulation) against OVCAR3 targets (N=4). FIG. 30D is a graph illustrating pooled proportion of NK cells from healthy donors expressing IFNγ cytokine production against OVCAR3 targets (N=4). FIG. 30E is a graph illustrating pooled proportion of NK cells from healthy donors expressing CD107a+ (degranulation) against OVCAR5 targets (N=7). FIG. 30F is a graph illustrating pooled proportion of NK cells from healthy donors expressing IFNγ cytokine production against OVCAR5 targets (N=7).” for “(N=8).”
as §3, §4

[4] = tested on: A549 lung cancer cells; assay: NK cell CD107a / IFNγ flow cytometry against A549; details: normal donor PBMCs, vs controls
Source text: FIGS. 24A-24F illustrate that B7-H3 TriKE enhances NK cell function against lung tumor targets. FIG. 24A is a graph showing pooled analysis of proportion of NK cells from healthy donors expressing CD107a+ against A549(N=6) tumor targets. FIG. 24B is a graph showing pooled analysis of proportion of NK cells from healthy donors expressing IFNγ against A549(N=6) tumor targets. FIG. 24C is a graph showing pooled analysis of proportion of NK cells from healthy donors expressing CD107a+ against NCI-H322 (N=5) tumor targets. FIG. 24D is a graph showing pooled analysis of proportion of NK cells from healthy donors expressing IFNγ against NCI-H322 (N=5) tumor targets. FIG. 24E is a graph showing pooled proportion of NK cells from healthy donors (black bars) or lung cancer patients (white bars) expressing CD107a+ against NCI-H460 (N=7). FIG. 24F is a graph showing pooled proportion of NK cells from healthy donors (black bars) or lung cancer patients (white bars) expressing IFNγ against NCI-H460 (N=7). ** p<0.01, *** p<0.001, and **** p<0.0001.
ADCC was measured in a flow cytometry assay by evaluating degranulation via CD107a (lysosomal-associated membrane protein LAMP-1) and intracellular IFNγ production. […] Samples were washed and evaluated in an LSRII flow cytometer (BD Biosciences, San Jose, CA, USA). […]

Substance | MDSC-enhanced myeloma cell growth [1] | NK cell activity against MA-148 ([2]; normal donor NK cells) | NK cell degranulation against MA-148 ([2]; ovarian-cancer-derived ascites samples) | NK cell degranulation against OVCAR8 [3] | NK cell intracellular IFNγ production against OVCAR8 [3] | NK cell activation against A549 [4]
B7-H3 TriKE: camelid nanobodies targeting CD16 and B7-H3 joined by IL-15 and two linkers; sequence table equates the name with cam1615B7-H3 | overcome |  |  |  |  | 
cam1615B7-H3: second-generation TriKE: humanized camelid anti-CD16 VHH, human wild-type IL-15, anti-B7-H3 mAb 376.96 scFv; SEQ ID NO:1 |  | robust activity | significantly enhanced NK cell degranulation | robust | robust | significantly and robustly improved NK cell activation
